{"source": "patent US20240156966A1", "about": "(priority 2021, published 2024)", "origin": "cited, not measured here", "system": "influenza virus", "details": "in vivo"}
{"smiles": "CCOC(=O)C1=C[C@@H](OC(CC)CC)[C@H](NC(C)=O)[C@@H](N)C1", "note": "[Oseltamivir]", "values": [{"measurement": "patients with detectable viral RNA", "result": 50.0, "unit": "%"}]}
